Source: the NIST ThermoML archive (doi:10.1016/j.fluid.2018.07.027)
Numbers after ± are expanded uncertainties.

Tests used:
[1] = Boiling temperature at pressure P; settings: 101.3 kPa; Liquid; Ebulliometric method (Recirculating still)
[2] = refractive index (Na D-line) (dimensionless); settings: 298.15 K; 101.33 kPa; Liquid; Standard Abbe refractometry
[3] = 298.15 K, 101.33 kPa, Liquid; for speed of sound: Single path-length method; for mass density: Vibrating tube method
[4] = xn = mol fraction of the nth substance listed; settings: 298.15 K, 101.3 kPa, Liquid; for speed of sound: Frequency=3 MHz, Single path-length method; for mass density: Vibrating tube method
[5] = refractive index (Na D-line) (dimensionless); xn = mol fraction of the nth substance listed; settings: 298.15 K, 101.3 kPa, Liquid, Standard Abbe refractometry

CC(C)CC(C)(C)C [2,2,4-trimethylpentane]
Settings	Boiling temperature at pressure P [°C]	mass density [kg/m3]	refractive index	speed of sound [m/s]
[1]	99.01 ± 0.05	–	–	–
[2]	–	–	1.38898 ± 0.00033	–
[3]	–	687.824 ± 0.92	–	1082.8 ± 1.1

CC(C)CC(C)(C)C [2,2,4-trimethylpentane] + CCCCO
Settings	mass density, [4] [kg/m3]	refractive index, [5]	speed of sound, [4] [m/s]
x1 = 0.0518	795.39 ± 0.93	1.39663 ± 0.00033	1223.4 ± 1.2
x1 = 0.1022	785.94 ± 0.93	1.39603 ± 0.00033	1208.3 ± 1.2
x1 = 0.1512	777.34 ± 0.93	1.39545 ± 0.00033	1194.3 ± 1.1
x1 = 0.2028	768.9 ± 0.92	1.39484 ± 0.00033	1181.5 ± 1.1
x1 = 0.2535	761.12 ± 0.92	1.39426 ± 0.00033	1169.4 ± 1.1
x1 = 0.3042	753.81 ± 0.92	1.39372 ± 0.00033	1157.9 ± 1.1
x1 = 0.3535	747.12 ± 0.92	1.39318 ± 0.00033	1148.6 ± 1.1
x1 = 0.4049	740.56 ± 0.92	1.39266 ± 0.00033	1139.1 ± 1.1
x1 = 0.4534	734.72 ± 0.92	1.39218 ± 0.00033	1130.8 ± 1.1
x1 = 0.5032	729.09 ± 0.92	1.39173 ± 0.00033	1123.4 ± 1.1
x1 = 0.5534	723.73 ± 0.92	1.39128 ± 0.00033	1116.6 ± 1.1
x1 = 0.6041	718.63 ± 0.92	1.39088 ± 0.00033	1110.3 ± 1.1
x1 = 0.6558	713.71 ± 0.92	1.3905 ± 0.00033	1104.5 ± 1.1
x1 = 0.7046	709.35 ± 0.92	1.39016 ± 0.00033	1099.6 ± 1.1
x1 = 0.7521	705.31 ± 0.92	1.38988 ± 0.00033	1095.4 ± 1.1
x1 = 0.8047	701.05 ± 0.92	1.38958 ± 0.00033	1091.1 ± 1.1
x1 = 0.8521	697.48 ± 0.92	1.38934 ± 0.00033	1087.9 ± 1.1
x1 = 0.9005	694.03 ± 0.92	1.38914 ± 0.00033	1085.1 ± 1.1
x1 = 0.9502	690.74 ± 0.92	1.38897 ± 0.00033	1082.8 ± 1.1
x1 = 1	687.79 ± 0.91	1.38898 ± 0.00033	1082.8 ± 1.1

CC(C)CC(C)(C)C [2,2,4-trimethylpentane] + CCCCOCCCC
x1 = 1
Settings	mass density [kg/m3]	refractive index	speed of sound [m/s]
[4]	687.71 ± 0.91	–	1082.6 ± 1.1
[5]	–	1.38898 ± 0.00033	–

CCCCO [butan-1-ol]
Settings	mass density [kg/m3]	refractive index	speed of sound [m/s]
[2]	–	1.39725 ± 0.00033	–
[3]	805.769 ± 0.91	–	1240.1 ± 1.1

CCCCO [butan-1-ol] + CC(C)CC(C)(C)C
x2 = 0
Settings	mass density [kg/m3]	refractive index	speed of sound [m/s]
[4]	805.78 ± 0.91	–	1240.1 ± 1.1
[5]	–	1.39725 ± 0.00033	–
